{"source": "patent US20060270643A1", "about": "“Hyfroxyflutamide induced pathways related to androgen receptor negative prostate cancer cells” (priority 2002, published 2006)", "key": {"[1]": {"tested_on": "association between Ras and Raf", "test": "Ras-Raf immunoprecipitation assay in DU145 cells", "format": "cell-based, human", "conditions": "lysates of treated DU145 cells; 1 μM HF, 10 ng/ml EGF, 1 μM 9-cis retinoic acid", "method": "8. […] (A) DU145 cells were treated with ethanol (lane 1), 10 ng/ml EGF (lane 2), 1 μM 9-cis retinoic acid (lane 3), and 1 μM HF (lane 4) after 24 hour serum starvation. Cells were lysed and 300 μg of total protein were immunoprecipitated with anti-Ras antibody, pulled-down by a protein A/G agarose beads, and detected with an anti-Raf antibody. (B) DU145 cells were transfected with pCDNA3.1 or pCDNA3.1-Ras N17 as indicated. After 24 hours serum starvation, the cells were treated with different ligands for 20 min, and then harvested. Western blots were performed with antibodies against phosphoERK1/2 and ERK1/2. The density of phospho-ERK1/2 shown as Optical Density (OD) were determined by the Versa Doc Imaging System (Bio-Rad) and quantified by Quantity One software.\n200. Serum-stared and treated DU145 cells were lysed with RIPA buffer for 30 min on ice. Lysates were then centrifuiged at 12,000 g for 10 min at 4° C. and protein concentrations were determined by the Bradford assay. 500 μg of cell lysates were incubated for 4 hours with either anti-Ras or anti-EGFR antibody (1/100, Santa Cruz Biotechnology) to the protein-antibody mixture and then added in 20 μl of protein A/G plus-agarose (Santa Cruz Biotechnology) for another 4 hours incubation with constant rotation. The immunoprecipitates were washed four times with cold PBS, resolved by SDS-PAGE, and immunoblotted by anti-Raf-1 antibody, or anti-phospho-tyrosine monoclonal antibody (Oncogene Research, Calbiochem, La Jolla, Calif.). The results were visualized by chemiluminescence."}, "[2]": {"tested_on": "cyclin D1 promoter (−1745D1-Luc)", "test": "Cyclin D1 promoter luciferase reporter assay in DU145 cells", "format": "cell-based, human", "conditions": "10^−6 M HF or 30 ng/ml EGF", "method": "(§1) 11. […] (A) DU145 cells were treated with HF (1 μM), or EGF (10 ng/ml), or ethanol vehicle for 12 hours after the serum starvation. Cells were lysed and blotted with anti-cyclin D1 antibody. (B) DU145 cells were serum starved for 24 hours and then co-transfected DN Ras or DN Raf together with […] Luc reporter with SuperFect (Qiagen). After 4 hours, the medium was changed to normal medium (10% serum) for 18 hours and then changed to serum starvation condition for another 24 hours and then treated with HF, EGF, or ethanol vehicle control. Cells were lysed for luciferase activity analysis.\n197. DU145 cells were obtained from American Type Culture Collection and cultured in Dubecco's modified Eagles's medium (DMEM) supplemented with 10% fetal bovine serum (FBS). Cells (1×10^5) were seeded in 35 mm plates and transfected with the SuperFect transfection reagent (Qiagen, Chatworth, Calif.). After 4 hours the media were changed to serum-free DMEM media for 24 hours. Thereafter, the cells were treated with HF, EGF, and vehicle for 18 hours and then lysed for luciferase assay. Luciferase activity was normalized for taansfection efficiency using pRL-TK as an internal control. Luciferase assays were performed using dual-luciferase reporter system (Promega, Madison, Wis.)."}, "AR": {"molecular_target": "T1, AR (Homo sapiens, UniProt P10275)", "T1 sequence (P10275 1-920)": "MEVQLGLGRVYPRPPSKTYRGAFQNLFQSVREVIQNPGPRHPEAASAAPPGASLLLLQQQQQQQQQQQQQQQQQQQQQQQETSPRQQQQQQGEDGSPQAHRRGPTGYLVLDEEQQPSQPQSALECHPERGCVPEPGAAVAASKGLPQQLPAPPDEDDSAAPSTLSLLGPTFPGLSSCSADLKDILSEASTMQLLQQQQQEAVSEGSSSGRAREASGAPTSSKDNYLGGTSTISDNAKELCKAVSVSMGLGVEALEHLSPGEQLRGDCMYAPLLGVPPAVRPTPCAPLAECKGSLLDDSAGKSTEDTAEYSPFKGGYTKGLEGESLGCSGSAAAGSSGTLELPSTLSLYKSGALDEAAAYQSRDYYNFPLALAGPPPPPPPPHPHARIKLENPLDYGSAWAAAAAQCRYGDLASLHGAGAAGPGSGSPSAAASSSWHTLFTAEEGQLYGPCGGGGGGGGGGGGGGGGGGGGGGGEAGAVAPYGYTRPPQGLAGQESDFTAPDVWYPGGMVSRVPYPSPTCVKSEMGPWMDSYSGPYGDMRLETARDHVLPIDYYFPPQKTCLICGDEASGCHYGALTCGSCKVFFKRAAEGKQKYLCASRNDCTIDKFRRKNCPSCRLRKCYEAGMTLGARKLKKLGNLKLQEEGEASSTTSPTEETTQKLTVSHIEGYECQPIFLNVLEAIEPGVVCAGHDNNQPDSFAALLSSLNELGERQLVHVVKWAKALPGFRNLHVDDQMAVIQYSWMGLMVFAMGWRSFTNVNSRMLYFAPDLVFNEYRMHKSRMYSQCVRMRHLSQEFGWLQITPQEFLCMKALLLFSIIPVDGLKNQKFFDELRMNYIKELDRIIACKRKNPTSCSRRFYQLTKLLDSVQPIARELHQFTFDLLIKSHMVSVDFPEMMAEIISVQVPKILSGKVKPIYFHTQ", "test": "AR/DHT mediated PSA transcriptional activity (luciferase reporter) in DU145 cells", "format": "cell-based", "conditions": "1 μM of HF, 1 nM DHT, DU145 cells cotransfected with AR"}, "cyclin D1": {"tested_on": "cyclin D1", "test": "Western blot of cyclin D1 and cell cycle related gene products in DU145 cells", "format": "cell-based, human", "method": "as §1"}, "[3]": {"tested_on": "MAP kinase in CWR22 cells", "test": "Immunoblot of phospho-ERK1/2 in CWR22 cells", "format": "cell-based, human", "conditions": "15 mins"}}}
{"smiles": "CC(C)(O)C(=O)Nc1ccc([N+](=O)[O-])c(C(F)(F)F)c1", "note": "[HF, hydroxyflutamide]", "values": [{"measurement": "Raf detected in the Ras immunocomplex", "setting": "[1]", "result": "detected"}, {"measurement": "induction of cyclin D1 promoter (−1745D1-Luc) activity", "setting": "[2]", "result": "about 2 fold"}, {"measurement": "DHT induced PSA-Luc activity", "setting": "AR", "result": "represses DHT induced PSA-Luc activity"}, {"measurement": "cyclin D1 expression", "setting": "cyclin D1; HF (1 μM) or EGF (10 ng/ml) for 12 hours after serum starvation", "result": "induced"}, {"measurement": "other cell cycle related gene products (p27, p21, Ki67, PCNA)", "setting": "cyclin D1; after HF- or EGF-treatment", "result": "no significant change"}, {"measurement": "MAP kinase activation", "setting": "[3]", "result": "activates MAP kinase"}]}
